Data reported in patent US9062002B2, “Substituted pyridine derivatives as FabI inhibitors” (Aurigene Discovery Technologies Limited, priority 2011, dated 2015).
Values after ≈ are worked out from the molar mass of the structure shown. Like-named read-outs stand apart in the source and are kept apart here.

How the values were obtained:
[1] = Metabolic stability study in mouse liver microsomes; type: in vitro ADME; settings: 1 μM, 37° C.
Experimental: The above selected compounds have protected mice from infection at ED50 doses. Metabolic Stability Study: In vitro metabolic stability of the compounds was done in mouse liver microsomes prepared in house as per standard protocol. Compounds were tested at 1 μM concentration. Compounds were incubated for 15 and 60 minutes at 37° C. with 100 rpm in shaker bath. After the incubation samples were analysed by LC/MS (API-4000). Respective control (Propranalol) was included in the study.

[2] = test system: MSSA; assay: MIC by broth microdilution method; type: cell-based; settings: for MIC: Staphylococcus aureus, MRSA / MSSA, read-out: MIC Vs MRSA (μg/ml) MSSA
[3] = test system: MRSA; assay: MIC by broth microdilution method; type: cell-based; settings: for MIC: Staphylococcus aureus, read-out: MIC Vs MRSA (μg/ml) MRSA
[4] = test system: MRSE; assay: MIC by broth microdilution method; type: cell-based; settings: for MIC: Staphylococcus epidermidis, MRSA / MRSE, read-out: MIC Vs MRSA (μg/ml) MRSE
[5] = test system: Fab I; settings: 1 μM compound

## CN1CCC2(CC1)Cc1cc(/C=C/C(=O)N3CC=C(Cc4cccs4)CC3)cnc1NC2=O [Compound 146, (E)-1′-methyl-6-(3-oxo-3-(4-(thiophen-2-ylmethyl)-5,6-dihydropyridin-1(2H)-yl)prop-1-en-1-yl)-1H-spiro[[1,8]naphthyridine-3,4′-piperidin]-2(4H)-one]
[1]
  Percentage of compound remained after 15 min: 57.9%
  Percentage of compound remained after 60 min: 15.8%

## NC(=O)N1CCC2(CC1)Cc1cc(/C=C/C(=O)N3CC=C(Cc4cccs4)CC3)cnc1NC2=O [Compound 139, (E)-2-oxo-6-(3-oxo-3-(4-(thiophen-2-ylmethyl)-5,6-dihydropyridin-1(2H)-yl)prop-1-en-1-yl)-2,4-dihydro-1H-spiro[[1,8]naphthyridine-3,4′-piperidine]-1′-carboxamide]
[1]
  Percentage of compound remained after 15 min: 21.6%
  Percentage of compound remained after 60 min: 7.3%

## Cc1cnc(CC2=CCN(C(=O)/C=C/c3cnc4c(c3)CCC(=O)N4)CC2)s1 [Compound 57]
[1]
  Percentage of compound remained after 15 min: 86.8%
  Percentage of compound remained after 60 min: 57.1%

## O=C1CCc2cc(/C=C/C(=O)N3CC=C(Cn4cccn4)CC3)cnc2N1 [Compound 100]
[2]; MSSA, broth microdilution
  MIC Vs MRSA (μg/ml) MSSA: 128 µg/mL (≈ 352 µM)
[3]; MRSA, broth microdilution
  MIC Vs MRSA (μg/ml) MRSA: 128 µg/mL (≈ 352 µM)
[4]; MRSE, broth microdilution
  MIC Vs MRSA (μg/ml) MRSE: 128 µg/mL (≈ 352 µM)
[5]
  FAB-I inhibition %@1 μM: 77%

## CC(C)CC(=O)N1CCC2(CC1)Cc1cc(/C=C/C(=O)N3CC=C(Cc4cccs4)CC3)cnc1NC2=O [Compound 140, (E)-1′-(3-methylbutanoyl)-6-(3-oxo-3-(4-(thiophen-2-ylmethyl)-5,6-dihydropyridin-1(2H)-yl)prop-1-en-1-yl)-1H-spiro[[1,8]naphthyridine-3,4′-piperidin]-2(4H)-one]
[1]
  Percentage of compound remained after 15 min: 1.9%
  Percentage of compound remained after 60 min: 1.7%

## O=C1CCc2cc(/C=C/C(=O)N3CC=C(Cc4nccs4)CC3)cnc2N1 [Compound 97]
[2]
  MIC Vs MRSA (μg/ml) MSSA: 0.5 µg/mL (≈ 1.31 µM)
[3]
  MIC Vs MRSA (μg/ml) MRSA: 0.5 µg/mL (≈ 1.31 µM)
[4]
  MIC Vs MRSA (μg/ml) MRSE: 1 µg/mL (≈ 2.63 µM)
[5]
  FAB-I inhibition %@1 μM: 66.85%

## O=C1CCc2cc(/C=C/C(=O)N3CC=C(Cc4ccccc4)CC3)cnc2N1 [Compound 62]
[2]
  MIC Vs MRSA (μg/ml) MSSA: 0.25 µg/mL (≈ 0.669 µM)
[3]
  MIC Vs MRSA (μg/ml) MRSA: 0.5 µg/mL (≈ 1.34 µM)
[4]
  MIC Vs MRSA (μg/ml) MRSE: 0.5 µg/mL (≈ 1.34 µM)
[1]
  Percentage of compound remained after 15 min: 78.5%
  Percentage of compound remained after 60 min: 54.2%
[5]
  FAB-I inhibition %@1 μM: 76%

## O=C1CCc2cc(/C=C/C(=O)N3CC=C(Cc4sccc4Cl)CC3)cnc2N1 [Compound 87]
[2]
  MIC Vs MRSA (μg/ml) MSSA: 0.5 µg/mL (≈ 1.21 µM)
[3]
  MIC Vs MRSA (μg/ml) MRSA: 0.5 µg/mL (≈ 1.21 µM)
[4]
  MIC Vs MRSA (μg/ml) MRSE: 0.5 µg/mL (≈ 1.21 µM)
[5]
  FAB-I inhibition %@1 μM: 69.05%

## O=C(/C=C/c1cnc2c(c1)CN(CCN1CCC3(CC1)COC3)C(=O)N2)N1CC=C(Cc2cccs2)CC1 [Compound 147, (E)-3-(2-(2-oxa-7-azaspiro[3.5]nonan-7-yl)ethyl)-6-(3-oxo-3-(4-(thiophen-2-ylmethyl)-5,6-dihydropyridin-1(2H)-yl)prop-1-en-1-yl)-3,4-dihydropyrido[2,3-d]pyrimidin-2(1H)-one]
[1]
  Percentage of compound remained after 15 min: 4.0%
  Percentage of compound remained after 60 min: 2.2%

## Cc1ccc(CC2=CCN(C(=O)/C=C/c3cnc4c(c3)CCC(=O)N4)CC2)cc1 [Compound 70]
[2]
  MIC Vs MRSA (μg/ml) MSSA: 1 µg/mL (≈ 2.58 µM)
[3]
  MIC Vs MRSA (μg/ml) MRSA: 1 µg/mL (≈ 2.58 µM)
[4]
  MIC Vs MRSA (μg/ml) MRSE: 2 µg/mL (≈ 5.16 µM)
[5]
  FAB-I inhibition %@1 μM: 63.47%

## O=C1CCNc2cc(/C=C/C(=O)N3CC=C(Cc4cccs4)CC3)cnc2N1 [Compound 91, (E)-8-(3-oxo-3-(4-(thiophen-2-ylmethyl)-5,6-dihydropyridin-1(2H)-yl)prop-1-en-1-yl)-2,3-dihydro-1H-pyrido[2,3-b][1,4]diazepin-4(5H)-one]
[2]; MSSA, broth microdilution
  MIC: 0.25 µg/mL (≈ 0.634 µM)
[3]; MRSA, broth microdilution
  MIC: 0.5 µg/mL (≈ 1.27 µM)
[4]; MRSE, broth microdilution
  MIC: 0.5 µg/mL (≈ 1.27 µM)
[1]
  Percentage of compound remained after 15 min: 81.3%
  Percentage of compound remained after 60 min: 79.3%
[5]
  FAB-I inhibition %@1 μM: 93%

## O=C1CCNc2cc(/C=C/C(=O)N3CC=C(Cc4nccs4)CC3)cnc2N1 [Compound 143, (E)-8-(3-oxo-3-(4-(thiazol-2-ylmethyl)-5,6-dihydropyridin-1(2H)-yl)prop-1-en-1-yl)-2,3-dihydro-1H-pyrido[2,3-b][1,4]diazepin-4(5H)-one]
[1]
  Percentage of compound remained after 15 min: 27.5%
  Percentage of compound remained after 60 min: 15.8%

## O=C1CCc2cc(/C=C/C(=O)N3CC=C(COc4ccccc4)CC3)cnc2N1 [Compound 107, (E)-6-(3-oxo-3-(4-(phenoxymethyl)-5,6-dihydropyridin-1(2H)-yl)prop-1-en-1-yl)-3,4-dihydro-1,8-naphthyridin-2(1H)-one]
[2]; MSSA, broth microdilution
  MIC: 4 µg/mL (≈ 10.3 µM)
[3]; MRSA, broth microdilution
  MIC: 4 µg/mL (≈ 10.3 µM)
[4]; MRSE, broth microdilution
  MIC: 4 µg/mL (≈ 10.3 µM)
[5]
  FAB-I inhibition %@1 μM: 95%

## O=C1CNCc2cc(/C=C/C(=O)N3CC=C(Cc4cccs4)CC3)cnc2N1 [Compound 92, (E)-7-(3-oxo-3-(4-(thiophen-2-ylmethyl)-5,6-dihydropyridin-1(2H)-yl)prop-1-en-1-yl)-4,5-dihydro-1H-pyrido[2,3-e][1,4]diazepin-2(3H)-one]
[2]; MSSA, broth microdilution
  MIC: 0.12 µg/mL (≈ 0.304 µM)
[3]; MRSA, broth microdilution
  MIC: 0.25 µg/mL (≈ 0.634 µM)
[4]; MRSE, broth microdilution
  MIC: 0.25 µg/mL (≈ 0.634 µM)

## O=C1CCc2cc(/C=C/C(=O)N3CC=C(COc4ccc(Cl)cc4)CC3)cnc2N1 [Compound 113]
[2]; MSSA, broth microdilution
  MIC Vs MRSA (μg/ml) MSSA: >128 µg/mL
[3]; MRSA, broth microdilution
  MIC Vs MRSA (μg/ml) MRSA: >128 µg/mL
[4]; MRSE, broth microdilution
  MIC Vs MRSA (μg/ml) MRSE: >128 µg/mL
[5]
  FAB-I inhibition %@1 μM: 36%

## O=C1CCc2cc(/C=C/C(=O)N3CC=C(Cc4cncs4)CC3)cnc2N1 [Compound 145]
[1]
  Percentage of compound remained after 15 min: 83.3%
  Percentage of compound remained after 60 min: 60.2%

## CC(=O)N1CCC2(CC1)Cc1cc(/C=C/C(=O)N3CC=C(Cc4cccs4)CC3)cnc1NC2=O [Compound 96, (E)-1′-acetyl-6-(3-oxo-3-(4-(thiophen-2-ylmethyl)-5,6-dihydropyridin-1(2H)-yl)prop-1-en-1-yl)-1H-spiro[[1,8]naphthyridine-3,4′-piperidin]-2(4H)-one]
[2]; MSSA, broth microdilution
  MIC: 8 µg/mL (≈ 16.3 µM)
[3]; MRSA, broth microdilution
  MIC: 8 µg/mL (≈ 16.3 µM)
[4]; MRSE, broth microdilution
  MIC: 16 µg/mL (≈ 32.6 µM)

## O=C1CCc2cc(/C=C/C(=O)N3CC=C(c4ccc(F)cc4)CC3)cnc2N1 [Compound 8]
[2]; MSSA, broth microdilution
  MIC Vs MRSA (μg/ml) MSSA: 2 µg/mL (≈ 5.3 µM)
[3]; MRSA, broth microdilution
  MIC Vs MRSA (μg/ml) MRSA: 2 µg/mL (≈ 5.3 µM)
[4]; MRSE, broth microdilution
  MIC Vs MRSA (μg/ml) MRSE: 8 µg/mL (≈ 21.2 µM)
[5]
  FAB-I inhibition %@1 μM: 108%

## O=C(/C=C/c1cnc2c(c1)CC1(CCN(C(=O)CO)CC1)C(=O)N2)N1CC=C(Cc2cccs2)CC1 [Compound 138, (E)-1′-(2-hydroxyacetyl)-6-(3-oxo-3-(4-(thiophen-2-ylmethyl)-5,6-dihydropyridin-1(2H)-yl)prop-1-en-1-yl)-1H-spiroa[[1,8]naphthyridine-3,4′-piperidin]-2(4H)-one]
[1]
  Percentage of compound remained after 15 min: 44.3%
  Percentage of compound remained after 60 min: 10.2%

## CC(C)(C)OC(=O)N1CCC2(CC1)Cc1cc(/C=C/C(=O)N3CC=C(Cc4cccs4)CC3)cnc1NC2=O [Compound 94, (E)-tert-butyl 2-oxo-6-(3-oxo-3-(4-(thiophen-2-ylmethyl)-5,6-dihydropyridin-1(2H)-yl)prop-1-en-1-yl)-2,4-dihydro-1H-spiro[[1,8]naphthyridine-3,4′-piperidine]-1′-carboxylate]
[2]; MSSA, broth microdilution
  MIC: 0.5 µg/mL (≈ 0.911 µM)
[3]; MRSA, broth microdilution
  MIC: 0.5 µg/mL (≈ 0.911 µM)
[4]; MRSE, broth microdilution
  MIC: 1 µg/mL (≈ 1.82 µM)
[1]
  Percentage of compound remained after 15 min: 55.7%
  Percentage of compound remained after 60 min: 37.6%

## O=C1CCc2cc(/C=C/C(=O)N3CC=C(Cc4ccccc4F)CC3)cnc2N1 [Compound 66]
[2]
  MIC Vs MRSA (μg/ml) MSSA: 0.25 µg/mL (≈ 0.639 µM)
[3]
  MIC Vs MRSA (μg/ml) MRSA: 0.25 µg/mL (≈ 0.639 µM)
[4]
  MIC Vs MRSA (μg/ml) MRSE: 0.25 µg/mL (≈ 0.639 µM)
[5]
  FAB-I inhibition %@1 μM: 84%

## O=C1CCc2cc(/C=C/C(=O)N3CC=C(Cc4cccs4)CC3)cnc2N1 [Compound 84]
[2]
  MIC Vs MRSA (μg/ml) MSSA: 0.125 µg/mL (≈ 0.329 µM)
[3]
  MIC Vs MRSA (μg/ml) MRSA: 0.25 µg/mL (≈ 0.659 µM)
[4]
  MIC Vs MRSA (μg/ml) MRSE: 0.25 µg/mL (≈ 0.659 µM)
[5]
  FAB-I inhibition %@1 μM: 100%

## O=C1CCc2cc(/C=C/C(=O)N3CC=C(Cc4cccc(Cl)c4)CC3)cnc2N1 [Compound 67]
[2]; MSSA, broth microdilution
  MIC Vs MRSA (μg/ml) MSSA: 2 µg/mL (≈ 4.9 µM)
[3]; MRSA, broth microdilution
  MIC Vs MRSA (μg/ml) MRSA: 1 µg/mL (≈ 2.45 µM)
[4]; MRSE, broth microdilution
  MIC Vs MRSA (μg/ml) MRSE: 2 µg/mL (≈ 4.9 µM)
[5]
  FAB-I inhibition %@1 μM: 63%
